We go through four compounds from patent US10552557B2, “Freshening compositions and devices comprising same” (The Procter & Gamble Company, priority 2014, dated 2020).

The experiment in a line: Blocker Index (BI), expert graders, isovaleric acid malodorous swatch treated with test material. An excerpt: Blocker materials suitable for use in consumer products of the present invention are chosen for their ability to decrease malodor, while not interfering with perception of a fragrance. Material selection is done by assigning two indices to a test sample material from two reference scales in order to rank odor strengths. The two reference scales are the Fragrance Fidelity Index (FFI) scale and the Blocker Index (BI) scale. The FFI ranks the ability of the test sample material to impart a perceivable odor which could cause interference when combined with another fragrance and the BI ranks the ability of the test sample material to reduce malodor perception. The two methods for assigning the indices to a test sample on the FFI and the BI reference scales are given below.
The first step in the method for assigning a BI to a test sample material on the BI reference scale is to create the BI reference swatches. […] Fabric swatches for this test are white knit polycotton (4 inch×4 inch) swatches from EMC ordered as PC 50/50. The supplier is instructed to strip the swatches first, stripping involves washing twice with a fragrance-free detergent and rinsing three times.
The BI scale contains one clean swatch with no malodor applied. […] These solutions are pipetted to the middle of the swatches. […] After drying for 30 minutes in a vented hood, the swatches are wrapped in aluminum foil to prevent odor contamination to the treated swatch. A clean untreated swatch is also included as the lowest anchor point of reference for malodor strength on the BI scale. The BI reference scale swatches should be used within 0.5 to 12 hours and discarded after 12 hours. The swatches are used as scale anchor points when graders evaluate a test sample(s) and are assigned a Blocker Index (BI) as show in Table 12.
The perfumer/expert grader is asked to rank order swatches according to a scale between 0 and 3.
The reference swatches represent the 0, 1, 2, and 3 BIs on the BI reference scale, Table 12. The expert grader should familiarizes him/herself with the strength of the odor on the BI reference swatches by sniffing each one starting at 0 (the lowest odor strength) and ending at 3 (the highest odor strength). This should be done prior to evaluating the swatch treated with the test material.
To evaluate the BI, the test material is applied to a malodorous swatch to determine how well the test material blocks the malodor. […] After drying the malodorous swatch a known concentration of test material solution, between 1 ppm and 100 ppm is pipetted onto the malodorous swatch. […] It is sometimes necessary to evaluate several levels of the test material between about 1 and about 100 ppm to determine the BI.
At least two perfumers/expert graders are used to assign the BI to the test sample. […] The test sample swatch is assigned a BI at or between numbers on the BI in table.

Where [1] appears, read: Conc 10 ppm test material on isovaleric acid malodorous swatch.
Setting [2] is: Conc 50 ppm test material on isovaleric acid malodorous swatch.

`CC(C)CC(=O)O` [isovaleric acid, reference compound]: for the setting “2 μL 0.08% solution, all graders (Table 10)”, the “BI of reference swatch, Ave” value is 1.0. Take `CC1(C)CCc2ccc(CCC=O)cc21`: the BI is, setting by setting: under setting [1], 1.5; under setting [2], 2.7. Turning to `CCC(=O)OC1CC2C3C=CCC3C1C2(C)C` (stereo not shown) [8,8-dimethyl-3a,4,5,6,7,7a-hexahydro-1H-4,7-methanoinden-6-yl propionate], the BI under setting [1] is 1.5 and the BI under setting [2] was 2.2. On to `CC1CCC2(C(C)C)CC(C)OC2C1` (stereo not shown), for which the BI runs as follows: under setting [1], 2.0; under setting [2], 2.2.
